In patent US20150087627A1, “COMBINATION OF KINASE INHIBITORS AND USES THEREOF” (Intellikine LLC, priority 2011, published 2015):
pIC50: −log10 of the molar value. Like-named read-outs stand apart in the source and are kept apart here.

Experiments:
Type in all cases: biochemical
[1] = target: T1, PI3K δ (Homo sapiens, UniProt O00329); experiment: PI 3-Kinase (human) HTRF assay, PI3K δ; details: read-out: PI3K δ IC50
T1 construct: purchased Upstate / Millipore Corporation

[2] = target: T2, PI3K β (p110β/p85α) (Homo sapiens, UniProt P42338); experiment: PI 3-Kinase (human) HTRF assay, PI3K β; details: read-out: PI3K β IC50
T2 construct: purchased Upstate / Millipore Corporation
T2 sequence (P42338 whole entry): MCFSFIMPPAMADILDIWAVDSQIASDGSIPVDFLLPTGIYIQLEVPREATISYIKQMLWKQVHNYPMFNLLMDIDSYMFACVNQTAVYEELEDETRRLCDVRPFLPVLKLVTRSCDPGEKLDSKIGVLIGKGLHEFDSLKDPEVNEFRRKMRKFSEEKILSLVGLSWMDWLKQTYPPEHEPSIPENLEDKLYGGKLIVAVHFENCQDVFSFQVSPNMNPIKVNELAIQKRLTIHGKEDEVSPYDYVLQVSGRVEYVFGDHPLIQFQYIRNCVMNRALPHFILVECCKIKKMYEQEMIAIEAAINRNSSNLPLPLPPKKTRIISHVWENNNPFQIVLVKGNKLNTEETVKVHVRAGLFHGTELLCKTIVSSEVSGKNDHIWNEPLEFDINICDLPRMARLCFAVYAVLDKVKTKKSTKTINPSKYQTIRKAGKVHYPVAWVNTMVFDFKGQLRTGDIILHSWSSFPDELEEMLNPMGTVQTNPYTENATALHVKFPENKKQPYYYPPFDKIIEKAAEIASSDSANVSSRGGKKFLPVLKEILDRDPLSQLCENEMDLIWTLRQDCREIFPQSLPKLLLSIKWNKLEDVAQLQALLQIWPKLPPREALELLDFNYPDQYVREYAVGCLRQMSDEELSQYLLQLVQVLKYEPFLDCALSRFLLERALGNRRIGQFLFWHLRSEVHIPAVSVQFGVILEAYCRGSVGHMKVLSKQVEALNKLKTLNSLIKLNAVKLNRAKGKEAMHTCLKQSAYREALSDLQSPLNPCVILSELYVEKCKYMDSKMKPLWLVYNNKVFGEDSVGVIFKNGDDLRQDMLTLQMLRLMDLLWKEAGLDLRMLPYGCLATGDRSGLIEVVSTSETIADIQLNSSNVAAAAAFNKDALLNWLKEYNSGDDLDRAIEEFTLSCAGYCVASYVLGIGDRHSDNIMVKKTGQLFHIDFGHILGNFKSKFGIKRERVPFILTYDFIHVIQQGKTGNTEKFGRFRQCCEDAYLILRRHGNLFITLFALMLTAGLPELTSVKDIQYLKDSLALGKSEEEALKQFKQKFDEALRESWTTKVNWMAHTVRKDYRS
T2 sequence (P27986 whole entry partner): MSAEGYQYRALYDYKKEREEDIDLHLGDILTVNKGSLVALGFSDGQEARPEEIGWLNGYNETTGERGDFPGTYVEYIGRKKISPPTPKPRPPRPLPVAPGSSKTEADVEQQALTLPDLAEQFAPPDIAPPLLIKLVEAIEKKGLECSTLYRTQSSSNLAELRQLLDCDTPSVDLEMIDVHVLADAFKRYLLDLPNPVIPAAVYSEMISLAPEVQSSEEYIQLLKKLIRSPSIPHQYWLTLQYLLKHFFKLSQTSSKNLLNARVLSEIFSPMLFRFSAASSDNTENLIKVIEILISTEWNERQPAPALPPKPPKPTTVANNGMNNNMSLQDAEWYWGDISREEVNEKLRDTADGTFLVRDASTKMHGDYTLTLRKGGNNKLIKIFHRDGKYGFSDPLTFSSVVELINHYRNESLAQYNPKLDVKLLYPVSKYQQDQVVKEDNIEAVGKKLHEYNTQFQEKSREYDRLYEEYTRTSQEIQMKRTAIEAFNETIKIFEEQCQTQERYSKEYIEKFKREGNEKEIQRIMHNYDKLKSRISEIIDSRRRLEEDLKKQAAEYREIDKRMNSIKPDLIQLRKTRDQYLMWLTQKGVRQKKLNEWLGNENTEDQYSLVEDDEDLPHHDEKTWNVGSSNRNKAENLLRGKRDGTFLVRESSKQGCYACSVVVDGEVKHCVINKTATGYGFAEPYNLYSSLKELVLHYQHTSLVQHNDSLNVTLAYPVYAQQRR

[3] = target: T3, PI3K α (p110α/p85α) (Homo sapiens, UniProt P42336); experiment: PI 3-Kinase (human) HTRF assay, PI3K α; details: read-out: PI3K α IC50
T3 construct: purchased Upstate / Millipore Corporation
T3 sequence (P42336 whole entry): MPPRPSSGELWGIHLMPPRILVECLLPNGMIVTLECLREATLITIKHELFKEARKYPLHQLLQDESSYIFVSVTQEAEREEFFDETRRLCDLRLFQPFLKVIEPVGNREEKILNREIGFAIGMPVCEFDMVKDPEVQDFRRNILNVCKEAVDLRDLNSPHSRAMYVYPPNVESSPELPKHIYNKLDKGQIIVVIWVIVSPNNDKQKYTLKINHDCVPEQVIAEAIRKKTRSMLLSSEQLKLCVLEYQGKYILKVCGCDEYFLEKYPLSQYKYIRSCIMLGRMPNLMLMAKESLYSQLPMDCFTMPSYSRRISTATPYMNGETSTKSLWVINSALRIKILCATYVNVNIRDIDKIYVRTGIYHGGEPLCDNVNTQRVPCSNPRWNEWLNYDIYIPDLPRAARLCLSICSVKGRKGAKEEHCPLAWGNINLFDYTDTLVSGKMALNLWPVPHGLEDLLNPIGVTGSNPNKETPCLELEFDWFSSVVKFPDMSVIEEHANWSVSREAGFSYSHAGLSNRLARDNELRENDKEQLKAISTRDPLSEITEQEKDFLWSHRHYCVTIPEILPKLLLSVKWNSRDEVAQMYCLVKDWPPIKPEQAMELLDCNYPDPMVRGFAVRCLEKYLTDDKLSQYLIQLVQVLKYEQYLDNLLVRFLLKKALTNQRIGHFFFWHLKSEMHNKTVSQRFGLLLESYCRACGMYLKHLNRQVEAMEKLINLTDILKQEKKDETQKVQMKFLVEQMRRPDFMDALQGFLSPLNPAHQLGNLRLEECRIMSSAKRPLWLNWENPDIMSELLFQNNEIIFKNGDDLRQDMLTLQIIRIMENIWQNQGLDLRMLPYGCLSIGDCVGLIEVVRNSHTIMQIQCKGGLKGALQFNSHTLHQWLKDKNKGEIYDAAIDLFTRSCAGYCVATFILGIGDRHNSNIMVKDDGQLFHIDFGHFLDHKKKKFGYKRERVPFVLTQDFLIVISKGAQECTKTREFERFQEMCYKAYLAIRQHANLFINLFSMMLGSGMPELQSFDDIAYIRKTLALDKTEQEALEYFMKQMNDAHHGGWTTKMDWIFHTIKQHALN
T3 sequence (P27986 whole entry partner): as the sequence (P27986 whole entry partner) above

T1 sequence (O00329 whole entry): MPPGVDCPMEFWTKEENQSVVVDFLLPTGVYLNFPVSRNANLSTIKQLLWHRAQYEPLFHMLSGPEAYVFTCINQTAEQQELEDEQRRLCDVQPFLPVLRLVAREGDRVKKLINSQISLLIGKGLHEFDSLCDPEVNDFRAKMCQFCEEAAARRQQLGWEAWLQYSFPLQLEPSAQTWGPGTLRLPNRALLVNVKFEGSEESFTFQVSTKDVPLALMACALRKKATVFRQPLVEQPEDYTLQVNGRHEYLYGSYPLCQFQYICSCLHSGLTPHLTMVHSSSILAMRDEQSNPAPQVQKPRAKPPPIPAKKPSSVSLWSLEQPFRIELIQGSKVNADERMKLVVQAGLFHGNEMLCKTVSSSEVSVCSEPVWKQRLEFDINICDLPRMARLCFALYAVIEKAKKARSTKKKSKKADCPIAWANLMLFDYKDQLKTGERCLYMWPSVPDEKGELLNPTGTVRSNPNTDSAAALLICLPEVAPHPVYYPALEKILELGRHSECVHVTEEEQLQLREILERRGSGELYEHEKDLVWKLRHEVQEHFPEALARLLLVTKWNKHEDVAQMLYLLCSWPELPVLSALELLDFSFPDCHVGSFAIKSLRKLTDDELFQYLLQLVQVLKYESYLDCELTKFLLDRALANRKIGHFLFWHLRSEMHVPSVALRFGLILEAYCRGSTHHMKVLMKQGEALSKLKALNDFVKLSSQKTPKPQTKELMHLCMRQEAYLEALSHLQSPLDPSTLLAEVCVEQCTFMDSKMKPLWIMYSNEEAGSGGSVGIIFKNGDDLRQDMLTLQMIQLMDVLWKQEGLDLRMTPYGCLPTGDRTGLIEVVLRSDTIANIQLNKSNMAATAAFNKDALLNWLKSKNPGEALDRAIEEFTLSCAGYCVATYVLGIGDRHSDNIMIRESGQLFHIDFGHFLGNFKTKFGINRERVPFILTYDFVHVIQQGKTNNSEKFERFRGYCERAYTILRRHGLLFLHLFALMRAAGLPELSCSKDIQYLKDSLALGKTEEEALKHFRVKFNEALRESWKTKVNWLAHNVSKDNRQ
T1 sequence (P27986 whole entry partner): as the sequence (P27986 whole entry partner) above

Row | SMILES | pIC50 [1] | pIC50 [2] | pIC50 [3] | pIC50 ([1]; Table 4 (PI3K α inhibitors)) | pIC50 ([2]; Table 4 (PI3K α inhibitors)) | pIC50 ([3]; Table 4 (PI3K α inhibitors))
1 | Nc1nc2cc(-c3nc4cc(-c5cccnc5)cnc4s3)ccc2o1 [Compound 402] | < 5.00 | < 5.00 | < 5.00 |  |  | 
2 | CC1CN(c2cnc3ccc(-c4ccc5oc(N)nc5c4)cc3n2)CC(C)N1 (stereo not drawn) [Compound 131] | > 6.00 | > 6.00 | > 6.00 |  |  | 
3 | CC(N)C(=O)N1CCN(c2cnc3ccc(-c4ccc5oc(N)nc5c4)cc3n2)CC1 (stereo not drawn) [Compound 134] | > 6.00 | > 6.00 | > 7.00 |  |  | 
4 | Nc1nc2cc(-c3ccc4nnc(-c5ccncc5)n4c3)ccc2o1 [Compound 229] | < 5.00 | > 6.00 | > 6.00 |  |  | 
5 | Nc1nc2cc(-c3ccc4nc(N)sc4c3)cc(F)c2o1 [Compound 436] | > 6.00 | > 7.00 | > 7.00 |  |  | 
6 | CC(C)N1CCC(n2cnc3ccc(-c4cnc(Cl)c(NS(=O)(=O)c5ccccc5)c4)cc3c2=O)CC1 [Compound 521] | > 7.00 | > 7.00 | > 7.00 |  |  | 
7 | Nc1nc2cc(-c3ccc4ncc(C(=O)N5CC[C@@H](n6cccn6)C5)n4c3)ccc2o1 [Compound 477] | > 5.00 | < 5.00 | > 7.00 |  |  | 
8 | Nc1nc2cc(-c3cnc4ccc(C(=O)N5CCOCC5)cn34)ccc2o1 [Compound 541] | < 5.00 | < 5.00 | < 5.00 |  |  | 
9 | C[C@@H]1CCCN1C(=O)c1cnc2ccc(-c3ccc4oc(N)nc4c3)cn12 [Compound 481] | > 5.00 | > 5.00 | > 7.00 |  |  | 
10 | Nc1nc2cc(-c3cc(F)c4ncc(C(=O)N5CCOCC5)n4c3)ccc2o1 [Compound 438] | < 5.00 | < 5.00 | > 5.00 |  |  | 
11 | Nc1nc2cc(-c3ccc4ncc(N5CC(O)C5)nc4c3)ccc2o1 [Compound 216] | > 5.00 | > 6.00 | > 7.00 |  |  | 
12 | NC(=O)[C@H]1CCCN1C(=O)C1CN(c2cnc3ccc(-c4ccc5oc(N)nc5c4)cc3n2)C1 [Compound 284] | > 5.00 | > 5.00 | > 7.00 |  |  | 
13 | Nc1n[nH]c2cc(-c3ccc4ncc(C(=O)N5CCOCC5)n4c3)ccc12 [Compound 487] | < 5.00 | < 5.00 | < 5.00 |  |  | 
14 | CS(=O)(=O)CCN1CCN(C(=O)c2cnc3ccc(-c4ccc5oc(N)nc5c4)cn23)CC1 [Compound 198] | > 5.00 | > 5.00 | > 7.00 |  |  | 
15 | Nc1nc2cc(-c3ccc4ncc(C(=O)N5CCC(O)C5)n4c3)ccc2o1 (stereo not drawn) [Compound 202] | > 5.00 | > 5.00 | > 7.00 |  |  | 
16 | Nc1nc2cc(-c3ccc4ncc(C(=O)N5CCS(=O)(=O)CC5)n4c3)ccc2o1 [Compound 107] | < 5.00 | < 5.00 | > 6.00 |  |  | 
17 | Nc1nc2cc(-c3ccc4[nH]nc(N)c4c3)ccc2o1 [Compound 427] | < 5.00 | < 5.00 | < 5.00 |  |  | 
18 | Nc1nc2cc(-c3ccc4ncc(N5CC(N6CCOCC6)C5)nc4c3)cc(Cl)c2o1 [Compound 358] | > 6.00 | > 6.00 | > 7.00 |  |  | 
19 | O=C(c1cnc2ccc(-c3cccc(S(=O)(=O)Nc4cc(F)ccc4F)c3)cn12)N1CCOCC1 [Compound 441] | < 5.00 | < 5.00 | < 5.00 |  |  | 
20 | CCOC(=O)N1CCN(c2cnc3ccc(-c4ccc5oc(N)nc5c4)nc3n2)CC1 [Compound 557] |  |  |  | > 6.00 | > 6.00 | > 7.00
21 | CC(C)(N)C(=O)N1CCN(c2cnc3ccc(-c4ccc5oc(N)nc5c4)cc3n2)CC1 [Compound 213] | > 6.00 | > 6.00 | > 7.00 |  |  | 
22 | Nc1nc2cc(-c3ccc4nc(N)c(N5CC(N6CCOCC6)C5)nc4c3)ccc2o1 [Compound 404] | < 5.00 | < 5.00 | < 5.00 |  |  | 
23 | CCNC(=O)c1cnc2ccc(-c3ccc4oc(N)nc4c3)cn12 [Compound 188] | > 6.00 | > 6.00 | > 7.00 |  |  | 

Row | SMILES | pIC50 [1] | pIC50 [2] | pIC50 [3] | pIC50 ([1]; Table 4 (PI3K α inhibitors)) | pIC50 ([2]; Table 4 (PI3K α inhibitors)) | pIC50 ([3]; Table 4 (PI3K α inhibitors))
24 | NC(=O)[C@H]1CCCN1C(=O)c1cnc2ccc(-c3ccc4oc(N)nc4c3)cn12 [Compound 260] | < 5.00 | < 5.00 | > 6.00 |  |  | 
25 | Nc1nc2cc(-c3ccc4ncc(C(=O)NCCN5CCCC5)n4c3)ccc2o1 [Compound 296] | > 6.00 | > 5.00 | > 6.00 |  |  | 
26 | Nc1nc2cc(-c3ccc4nccc(-c5cn[nH]c5)c4c3)ccc2o1 [Compound 20] | > 7.00 | > 7.00 | > 7.00 |  |  | 
27 | CS(=O)(=O)Nc1nc2cc(-c3ccc4ncc(C(=O)N5CCOCC5)n4c3)ccc2o1 [Compound 405] | < 5.00 | < 5.00 | < 5.00 |  |  | 
28 | O=C(c1cnc2ccc(-c3cncc(S(=O)(=O)Nc4ccccc4)c3)cn12)N1CCOCC1 [Compound 447] | < 5.00 | < 5.00 | > 5.00 |  |  | 
29 | CC1(C)COCCN1C(=O)c1cnc2ccc(-c3ccc4oc(N)nc4c3)cn12 [Compound 514] | < 5.00 | < 5.00 | > 6.00 |  |  | 
30 | Cn1cc(-c2cnc3ccc(-c4ccc5oc(N)nc5c4)cc3n2)cn1 [Compound 94] | > 5.00 | > 6.00 | > 7.00 |  |  | 
31 | CN(C(=O)c1cnc2ccc(-c3ccc4oc(N)nc4c3)cn12)C1CCOCC1 [Compound 472] | > 5.00 | > 5.00 | > 7.00 |  |  | 
32 | Nc1nc2cc(-c3ccn4ncc(C(=O)N5CCCC5)c4c3)ccc2o1 [Compound 346] | < 5.00 | > 5.00 | > 7.00 |  |  | 
33 | C[C@H]1CN(c2cnc3cccc(-c4ccc5nc(N)oc5c4)c3n2)CCN1 [Compound 343] | < 5.00 | > 5.00 | < 5.00 |  |  | 
34 | O=C(c1cnc2ccc(-c3cnc(Cl)c(NS(=O)(=O)c4ccccc4)c3)cn12)N1CCOCC1 [Compound 451] | > 7.00 | > 6.00 | > 7.00 |  |  | 
35 | CN(C)C1CCN(C(=O)c2cnc3ccc(-c4ccc5oc(N)nc5c4)cn23)CC1 [Compound 304] | < 5.00 | < 5.00 | > 6.00 |  |  | 
36 | Nc1nc2cc(-c3ccc4ncc(N5CC(N6CCNC(=O)C6)C5)nc4c3)ccc2o1 [Compound 325] | > 5.00 | > 6.00 | > 7.00 |  |  | 
37 | CC(=O)Nc1n[nH]c2cc(-c3ccc4oc(N)nc4c3)ccc12 [Compound 430] | < 5.00 | > 5.00 | > 5.00 |  |  | 
38 | Cc1cc(-c2ccc3oc(N)nc3c2)cc2c(C(=O)N3CCOCC3)cnn12 [Compound 357] | > 5.00 | > 5.00 | > 6.00 |  |  | 
39 | Nc1nc2cc(-c3ccc4ncc(C(=O)N5CC[C@H](n6cccn6)C5)n4c3)ccc2o1 [Compound 478] | > 6.00 | > 5.00 | > 7.00 |  |  | 
40 | Cc1cc2oc(N)nc2cc1-c1ccc2ncc(C(=O)N3CCOCC3)n2c1 [Compound 352] | < 5.00 | < 5.00 | < 5.00 |  |  | 
41 | CN1CCN(C(=O)c2cnc3ccc(-c4ccc5sc(N)nc5c4)cn23)CC1 [Compound 144] | < 5.00 | > 5.00 | > 6.00 |  |  | 
42 | Nc1nc2cc(-c3ccc4nnc(-c5cccnc5)n4c3)ccc2o1 [Compound 300] | < 5.00 | > 5.00 | > 5.00 |  |  | 
43 | CC1CN(c2cnc3ccc(-c4ccc5oc(N)nc5c4)cc3n2)CCO1 (stereo not drawn) [Compound 173] | > 5.00 | > 6.00 | > 7.00 |  |  | 
44 | Nc1nc2cc(-c3ccc4ncn(C5CCNCC5)c(=O)c4c3)ccc2o1 [Compound 75] | < 5.00 | > 5.00 | > 7.00 |  |  | 
45 | CC1(C)CN(c2cnc3ccc(-c4ccc5oc(N)nc5c4)cc3n2)CCN1 [Compound 336] | > 5.00 | > 6.00 | > 6.00 |  |  | 
46 | CNc1nc2cc(-c3ccc4ncc(C(=O)N5CCOCC5)n4c3)ccc2o1 [Compound 406] | < 5.00 | > 5.00 | > 5.00 |  |  | 
